The EC50 is the concentration needed to bring the measured effect to its halfway point.

The assay addresses T1, human TLR7 (Homo sapiens, UniProt Q9NYK1).
T1 construct: host or cells: HEK-Blue hTLR7 (HEK293-derived reporter cells)
T1 sequence (Q9NYK1 27-1049): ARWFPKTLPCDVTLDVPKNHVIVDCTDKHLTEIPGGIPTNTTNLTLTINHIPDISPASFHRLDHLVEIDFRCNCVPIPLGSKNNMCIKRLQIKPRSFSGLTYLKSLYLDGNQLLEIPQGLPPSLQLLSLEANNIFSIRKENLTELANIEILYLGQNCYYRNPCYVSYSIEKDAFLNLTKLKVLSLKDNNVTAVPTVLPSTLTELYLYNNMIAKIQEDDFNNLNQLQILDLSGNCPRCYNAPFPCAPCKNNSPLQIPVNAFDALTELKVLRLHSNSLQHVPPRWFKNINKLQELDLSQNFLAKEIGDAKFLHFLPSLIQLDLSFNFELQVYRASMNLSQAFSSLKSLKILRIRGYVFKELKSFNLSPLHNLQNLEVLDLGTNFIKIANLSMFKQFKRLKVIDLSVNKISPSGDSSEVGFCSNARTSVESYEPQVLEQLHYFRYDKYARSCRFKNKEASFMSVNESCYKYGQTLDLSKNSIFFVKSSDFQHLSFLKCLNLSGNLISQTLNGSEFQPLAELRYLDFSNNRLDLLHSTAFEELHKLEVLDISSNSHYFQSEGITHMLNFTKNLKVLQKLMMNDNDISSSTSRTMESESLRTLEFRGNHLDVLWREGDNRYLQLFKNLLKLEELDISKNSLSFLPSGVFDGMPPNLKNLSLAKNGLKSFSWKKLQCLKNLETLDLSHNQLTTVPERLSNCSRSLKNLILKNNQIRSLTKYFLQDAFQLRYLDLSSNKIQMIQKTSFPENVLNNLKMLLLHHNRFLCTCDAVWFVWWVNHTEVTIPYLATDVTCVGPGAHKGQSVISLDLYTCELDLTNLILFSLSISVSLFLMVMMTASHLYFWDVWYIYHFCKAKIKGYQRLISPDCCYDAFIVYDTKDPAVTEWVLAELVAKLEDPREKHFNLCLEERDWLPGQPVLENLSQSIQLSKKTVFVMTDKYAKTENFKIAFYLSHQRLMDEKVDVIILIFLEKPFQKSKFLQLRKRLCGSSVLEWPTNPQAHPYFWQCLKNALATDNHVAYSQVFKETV
Kind of assay: Agonistic activity on human TLR7 in HEK-Blue hTLR7 cell line (QUANTI-Blue reporter). The class given is cell-based. Particulars: HEK-Blue hTLR7 cells, 16-22 h incubation, absorption at 630 nm; read-out: EC50 value of the agonistic effect on human TLR7. How it is done:
The TLR7 agonistic activity of the compounds of the invention in HEK-Blue™ hTLR7 cell line with stable expression of human TLR7 were assayed using the following method: • 1. Weighed the test compounds and prepared stock solutions with DMSO (Sigma) at a concentration of 10 mM. […] The highest concentration was 1 mM. • 2. The test compounds and DMSO control were diluted 10-fold in DPBS buffer (Gibco) and then added to a 96-well cell culture plate (Corning) at a volume of 20 μL/well. • 3. HEK-Blue™ hTLR7 cells (Invivogen) were digested with cell separation solution (Gibco), and counted (TC-20 cell counter, Bio-rad). Cells were diluted to 4.4E5/ml using DMEM cell medium (Gibco). Added the cells to a 96-well cell culture plate at a volume of 180 μL/well. The cells were incubated for 16-22 h at 37° C. in a 5% CO2 incubator. • 4. Prepared QUANTI-Blue detection reagent (Invivogen), and added into a new 96-well plate at a volume of 180 μL/well. Twenty μL of cell culture supernatant was transferred from the cell culture plate and added to the 96-well plate and incubated at 37° C. for 1-3 hours. • 5. Neo2 multifunctional microplate reader (Bio-Tek) was used to measure the optical absorption at 630 nm, and the EC50 was calculated by GraphPad Prism.
The agonistic effect of the compounds of the invention on human TLR7 can be determined by the above experiments, and the measured EC50 value is shown in Table 1.
As for `CC(C)(CN1CCc2c3cc(cc2C1)Cn1c(=O)[nH]c2c(N)nc(nc21)OCCCCC3)C(=O)O` [Compound I-27], the EC50 is 76 nM. For `Nc1nc2nc3c1[nH]c(=O)n3Cc1cc(c3c(c1)CC(C(=O)O)CO3)CC=CCCO2` (stereo not drawn) [Compound I-18], the EC50 was 20 nM.

In the case of `Nc1nc2nc3c1[nH]c(=O)n3Cc1cc(c3c(c1)CN(C1CCNCC1)CC3)CCCCCO2` [Compound I-40], the EC50 was 280 nM. With `Nc1nc2nc3c1[nH]c(=O)n3Cc1cc(c3c(c1)CN(CC(=O)O)CC3)C/C=C/CCO2` [Compound I-22] the figure was 15 nM. With `Nc1nc2nc3c1[nH]c(=O)n3Cc1cc(c3c(c1)CCN(CC(=O)O)C3)CCCCCO2` [Compound I-25] the figure was 95 nM; with `Nc1nc2nc3c1[nH]c(=O)n3Cc1cc(c3c(c1)CN(S(=O)(=O)c1ccccc1)CC3)CC=CCCO2` [Compound I-45], 579 nM; with `Nc1nc2nc3c1[nH]c(=O)n3Cc1cc3c(c(c1)OC[C@@H]1CC[C@H]1CO2)CCNC3` [Compound I-29], 35 nM. Regarding `Nc1nc2nc3c1[nH]c(=O)n3Cc1cc(c3c(c1)C(=O)N(CC(=O)O)C3)CCCCCO2` [Compound I-3], the EC50 was 10 nM.

Take `CN1CCC=CCc2cc(cc3c2CN(C(C)(C)C)C3=O)Cn2c(=O)[nH]c3c(N)nc1nc32` [Compound I-58]: the EC50 is 1100 nM.

Regarding `Nc1nc2nc3c1[nH]c(=O)n3Cc1cc(c3c(c1)CN(C1CCOCC1)CC3)CCCCCO2` [Compound I-41], the EC50 is 22 nM. With `CC1(C(=O)O)Cc2cc3cc(c2C1)C/C=C\CCOc1nc(N)c2[nH]c(=O)n(c2n1)C3` (stereo not drawn) [Compound I-21] the figure was 42 nM; with `Cc1cnc(N2CCc3c4cc(cc3C2)Cn2c(=O)[nH]c3c(N)nc(nc32)OCCCCC4)nc1` [Compound I-46], 980 nM; with `Nc1nc2nc3c1[nH]c(=O)n3Cc1cc3c(c(c1)OC[C@@H]1C[C@H]1CO2)CCNC3` [Compound I-32], 31 nM. Regarding `CC(C)N1CCc2c3cc(cc2C1)Cn1c(=O)[nH]c2c(N)nc(nc21)S(=O)(=O)CCCCC3` [Compound I-63], the EC50 amounted to 31 nM.

With `CS(=O)(=O)N1CCc2c3cc(cc2C1)Cn1c(=O)[nH]c2c(N)nc(nc21)OCCC=CC3` [Compound I-43], the concentration giving a half-maximal response (EC50) is 3 nM.

Turning to `Nc1nc2nc3c1[nH]c(=O)n3Cc1cc(c3c(c1)CCC(C(=O)O)O3)CCCCCO2` (stereo not drawn) [Compound I-15], the EC50 is 228 nM.

With `Nc1nc2nc3c1[nH]c(=O)n3Cc1cc(c3c(c1)C(=O)N(CCN1CCCC1)C3)C/C=C/CCO2` [Compound I-7], the EC50 is 8 nM. Regarding `CN1Cc2c3cc(cc2C1=O)Cn1c(=O)[nH]c2c(N)nc(nc21)OCCCCC3` [Compound I-5], the EC50 worked out at 113 nM. `Nc1nc2nc3c1[nH]c(=O)n3Cc1cc(c3c(c1)CCNC3)C/C=C/CCO2` [Compound I-12]: the EC50 turned out to be 8 nM.

As for `Nc1nc2nc3c1[nH]c(=O)n3Cc1cc(c3c(c1)CN(CCO)CC3)CCCCCO2` [Compound I-38], the EC50 worked out at 47 nM. Take `Nc1nc2nc3c1[nH]c(=O)n3Cc1cc3c(c(c1)OCCCCO2)CCNC3` [Compound I-31]: the EC50 was determined as 39 nM. Regarding `Nc1nc2nc3c1[nH]c(=O)n3Cc1cc(c3c(c1)CN(CC(=O)O)CC3)CCCCCO2` [Compound I-23], the EC50 was 79 nM. With `CS(=O)(=O)CCN1CCc2c3cc(cc2C1)Cn1c(=O)[nH]c2c(N)nc(nc21)OCCCCC3` [Compound I-59], the EC50 was 87 nM.

Consider `Nc1nc2nc3c1[nH]c(=O)n3Cc1cc(c3c(c1)C(=O)N(CC(=O)O)C3)C/C=C\CCO2` [Compound I-1], for which the EC50 came out at 3 nM.

In the case of `CN1Cc2c3cc(cc2C1=O)Cn1c(=O)[nH]c2c(N)nc(nc21)OCCC=CC3` [Compound I-4], the EC50 is 5 nM. Take `Nc1nc2nc3c1[nH]c(=O)n3Cc1cc(cc3c1CNCC3)OCCCCO2` [Compound I-66]: the EC50 was 393 nM. For `CC(C)N1CCc2cc3cc(c2C1)OCCCCOc1nc(N)c2[nH]c(=O)n(c2n1)C3` [Compound I-64], the EC50 is 11 nM.

As to `Nc1nc2nc3c1[nH]c(=O)n3Cc1cc(c3c(c1)CC(C(=O)O)O3)CCCCCO2` (stereo not drawn) [Compound I-17], the EC50 was found to be 167 nM. With `Nc1nc2nc3c1[nH]c(=O)n3Cc1cc(c3c(c1)CN(CC(F)(F)F)CC3)CCCCCO2` [Compound I-39] the figure was 3150 nM; with `Nc1nc2nc3c1[nH]c(=O)n3Cc1cc(c3c(c1)CN(Cc1ccncc1)CC3)CCCCCO2` [Compound I-47], 165 nM; with `Nc1nc2nc3c1[nH]c(=O)n3Cc1cc(c3c(c1)CC(C(=O)O)O3)CC=CCCO2` (stereo not drawn) [Compound I-16], 17 nM. In the case of `Nc1nc2nc3c1[nH]c(=O)n3Cc1cc(c3c(c1)CNCC3)C/C=C\CCO2` [Compound I-8] it was 15 nM; in that of `Nc1nc2nc3c1[nH]c(=O)n3Cc1cc(cc3c1OCC3)CCCCCO2` [Compound I-67], 316 nM; in that of `Nc1nc2nc3c1[nH]c(=O)n3Cc1cc3c(c(c1)OCCCO2)CCNC3` [Compound I-30], 75 nM.

Turning to `Nc1nc2nc3c1[nH]c(=O)n3Cc1cc(c3c(c1)CCC(C(=O)O)O3)CC=CCCO2` (stereo not drawn) [Compound I-14], the EC50 worked out at 38 nM. Turning to `Nc1nc2nc3c1[nH]c(=O)n3Cc1cc(c3c(c1)CC(C(=O)O)CO3)CCCCCO2` (stereo not drawn) [Compound I-19], the EC50 was found to be 165 nM.

On to `Nc1nc2nc3c1[nH]c(=O)n3Cc1cc(cc3c1CN(C1CCC1)CC3)OCCCCO2` [Compound I-68], for which the EC50 is 25 nM.

As for `Nc1nc2nc3c1[nH]c(=O)n3Cc1cc(c3c(c1)CCNC3)CCCCCO2` [Compound I-13], the EC50 is 28 nM. With `Nc1nc2nc3c1[nH]c(=O)n3Cc1cc(c3c(c1)CNCC3)CCCCCS2(=O)=O` [Compound I-61] the figure was 13 nM; with `COC(=O)CN1CCc2c3cc(cc2C1)Cn1c(=O)[nH]c2c(N)nc(nc21)OCCCCC3` [Compound I-49], 73 nM; with `CN1CCc2c3cc(cc2C1)Cn1c(=O)[nH]c2c(N)nc(nc21)OCCCCC3` [Compound I-36], 20 nM. With `Nc1nc2cc3c1[nH]c(=O)n3Cc1cc(c3c(c1)CNCC3)C/C=C/CCO2` [Compound I-34] the figure was 132 nM. With `CC(C)(C)N1Cc2c3cc(cc2C1=O)Cn1c(=O)[nH]c2c(N)nc(nc21)SCC/C=C\C3` [Compound I-52] the figure was 19 nM; with `Nc1nc2nc3c1[nH]c(=O)n3Cc1cc(c3c(c1)CNCC3)CCCCCCO2` [Compound I-28], 111 nM. In the case of `Nc1nc2nc3c1[nH]c(=O)n3Cc1cc(c3c(c1)CNCC3)C/C=C/CCO2` [Compound I-9], the half-maximal effective concentration (EC50) stood at 9 nM. For the compound `Nc1nc2nc3c1[nH]c(=O)n3Cc1cc(c3c(c1)C(=O)N(CCN1CCCC1)C3)C/C=C\CCO2` [Compound I-6], the EC50 amounted to 2 nM. In the case of `Nc1nc2nc3c1[nH]c(=O)n3Cc1cc(c3c(c1)CNCC3)CCCCCO2` [Compound I-10] it was 26 nM; in that of `Nc1nc2nc3c1[nH]c(=O)n3Cc1cc(c3c(c1)CCN(CC(=O)O)C3)CC=CCCO2` [Compound I-24], 84 nM. For `Nc1nc2nc3c1[nH]c(=O)n3Cc1cc(c3c(c1)CN(C1CCC1)CC3)CCCCCS2(=O)=O` [Compound I-62], the EC50 turned out to be 13 nM. With `Nc1nc2nc3c1[nH]c(=O)n3Cc1cc(c3c(c1)CCNC3)C/C=C\CCO2` [Compound I-11], the EC50 came out at 6 nM.

For the compound `Nc1nc2nc3c1[nH]c(=O)n3Cc1cc(c3c(c1)CN(C(=O)c1ccccc1)CC3)CC=CCCO2` [Compound I-44], the EC50 was 38 nM.
